{"source": "paper PMC12264794", "about": "“Homoleptic complexes of titanium(IV) fused with O^N^O Schiff base derivatives: design, BSA–DNA interaction, molecular docking, DFT and cytotoxicity” (RSC Advances, 2025)", "type_in_all_cases": "cell-based, human", "key": {"HeLa cells [1]": {"tested_on": "HeLa cells", "assay": "MTT cytotoxicity assay, HeLa", "details": "for IC50: 48 h of drug exposure; for Selectivity: HeLa cell lines", "description": "(§1) The in vitro cytotoxicity of the Ti(IV) complexes under investigation was investigated using MTT, a micro-titration colorimetric method. The in vitro cytotoxicity test of the Ti(IV) complexes was evaluated against the cervical cancer cell line (HeLa), human breast cancer cell line (MCF-7) and human kidney normal cell line (HEK-293).[65,66]\nIn the cytotoxicity assay, tetrazolium salt 3-[4,5-dimethylthiazol-2-yl]-2,5diphenyl tetrazolium bromide (MTT) was utilized to assess cell viability. The MTT powder was diluted in Dulbecco's PBS (stock solution of MTT (5 mg mL^−1)) to attain a final concentration of 0.5 mg mL^−1 and a […] was used to filter and sterilize the stock solution, which was then kept at 2–6 °C. In metabolically active cells, MTT is reduced to produce an insoluble purple formazan product. In the exponential phase, cells were taken out of the stored cultures after the 48-hour recovery period, following seeding onto 96-well plates at a density of 1 × 10^4 cells per well in 100 μL medium at 37 °C in a 95% air and 5% CO2 environment, and the cells were incubated for 12 hours. Cell lines were treated for 48 hours with Ti(IV) complexes at varying doses (9.5–300 μM) and cis-platin as a control (apart from normal cells). After 48 hours of incubation at 37 °C, the medium was removed and 100 μL of DMSO was added to dissolve the […], and the culture plates were shaken for five minutes. A Bio-Rad xMARK™ multi-well plate reader was used to measure the absorbance of each well at 570 nm. Using eqn (2), the percentage viability, which represents the relative viability of the treated cells in comparison to the control cells, was calculated, and the IC50 values and standard deviation of the substances under investigation were calculated in triplicate.2 [drawing 2]\n(§2) An MTT assay was used to examine the cytotoxic effectiveness of the produced Ti(IV) complexes. After 48 hours of incubation, the cytotoxicity of Ti-1-IS to Ti-6-IBr was evaluated against human cancer cell lines, such as breast carcinoma (MCF7) and cervical cancer (HeLa), as well as the non-cancerous human embryonic kidney (HEK) cell line, by using the widely used therapeutic drug, cis-platin, as a positive control by following the standard protocol."}, "HEK-293 cells": {"tested_on": "HEK-293 cells", "assay": "MTT cytotoxicity assay, HEK-293", "details": "48 h of drug exposure", "description": "as §1\nIn the cytotoxicity assay, tetrazolium salt 3-[4,5-dimethylthiazol-2-yl]-2,5diphenyl tetrazolium bromide (MTT) was utilized to assess cell viability. […] A Bio-Rad xMARK™ multi-well plate reader was used to measure the absorbance of each well at 570 nm. Using eqn (2), the percentage viability, which represents the relative viability of the treated cells in comparison to the control cells, was calculated, and the IC50 values and standard deviation of the substances under investigation were calculated in triplicate.2 [drawing 2]\nas §2"}, "HeLa cells [2]": {"tested_on": "HeLa cells", "assay": "ROS generation, DCFH-DA staining", "details": "IC50 doses, 48 hours", "description": "HeLa cells of density 5 × 10^4 were seeded in six-well plates with high glucose DMEM and kept overnight until cell confluency was attained. […] The cells were treated with 10 mM 20,70-dichlorodihydrofluorescein diacetate (DCHF-DA) dye after washing twice with PBS buffer. Later, cells were incubated at 37 °C in complete darkness for 30 minutes. Subsequently, an inverted fluorescent microscope (Olympus Confocal Laser Scanning Microscope Fluoview Fv3000) was used to assess the ROS level of the cells. […] The amount of intracellular ROS was expressed as the average fluorescence intensity.[71,72]\nROS have been proposed as potential mediators of oxidative stress-induced apoptosis caused by titanium(IV) complexes, and the electrophoresis experiment mentioned above supports this theory."}, "HeLa cells [3]": {"tested_on": "HeLa cells", "assay": "AO–EB staining assay", "details": "IC50 concentration, 48 hours", "description": "A dual AO–EB staining fluorescent labelling technique was performed utilizing the Gohel et al. protocol, HeLa cells were seeded in 6-well plates at a density of 5 × 10^4. They were grown in a humidified CO2 incubator at 37 °C until they reached 70–80% confluency. […] The media were removed from each well, and the cells underwent two gentle room-temperature PBS rinses. Following that, the cells were combined with 100 μL of ethidium bromide and acridine orange dye and incubated separately for 15 minutes at 37 °C after staining separately, and the plates were observed and images were captured with an Olympus Confocal Laser Scanning Microscope—Fluoview Fv3000.[67,68]\nThe most important requirement in the creation of novel anticancer drugs is to determine the apoplastic induction caused by the drug concerned. AO–EB assay staining aids in the differentiation of necrotic, apoptotic, and living cells. By means of AO–EB staining, the morphological alterations caused by Ti-1-IS to Ti-6-IBr in HeLa cells were investigated. AO can penetrate intact cell membranes and dye them green; this distinction is caused in early apoptotic as well as normal cells. In contrast, EB can only enter cells that have lost their ability to form membranes, leaving an orange stain behind, identifying them as necrotic or late apoptotic cells."}, "HeLa cells [4]": {"tested_on": "HeLa cells", "assay": "Flow cytometry cell cycle analysis by PI staining", "details": "48 h, complexes at IC50, cis-platin 5 μM", "description": "A flow cytometer was also used to do the apoptotic assessment. HeLa cells (5 × 10^5) were seeded onto 6-well plates using Dulbecco's Modified Eagle Medium paper (DMEM) with 10% FBS. The plates were incubated overnight at 37 °C with 95% air and 5% CO2. […] Following trypsinization, the cells were collected, cleaned with PBS, and fixed for 24 hours at 2–6 °C in ice-cold 70% ethanol. Centrifugation was used to remove the ethanol, and cold PBS was used twice to wash the cell pellets. Later the cells were stained with propidium iodide (PI, 1 mg mL^−1) and incubated for 30 min. Flow cytometric analysis was performed using a FACS scanner and the Becton Dickinson cell search program at 595 nm and the distribution of cells in various cell cycle phases was determined.[69,70]\nThrough cell cycle analysis, the mechanism of cancer cell death caused by the complexes was evaluated. Anticancer drugs promote growth-inhibitory action in cancer cells by a variety of mechanisms, one of which is dysfunction in the regulation of the cell cycle.[32] For example, cis-platin inhibits DNA transcription in cells by stopping the cell cycle in the S and G2/M phases. PI staining and flow cytometry were used to examine the ability of the complexes to modify the cell cycle (Fig. 19)."}}}
{"smiles": "[O-]C(=NN=Cc1cc(F)ccc1[O-])c1ccncc1.[O-]C(=NN=Cc1cc(F)ccc1[O-])c1ccncc1.[Ti+4]", "note": "[Ti-4-IF]", "values": [{"measurement": "IC50", "setting": "HeLa cells [1]", "value": "47.3 ± 0.5", "unit": "µM"}]}
{"smiles": "[O-]C(=NN=Cc1c([O-])ccc2ccccc12)c1ccncc1.[O-]C(=NN=Cc1c([O-])ccc2ccccc12)c1ccncc1.[Ti+4]", "note": "[Ti-2-IN]", "values": [{"measurement": "IC50", "setting": "HeLa cells [1]", "value": "74.04 ± 0.5", "unit": "µM"}, {"measurement": "IC50", "setting": "HEK-293 cells", "value": "> 250", "unit": "µM"}]}
{"smiles": "Brc1ccc2c(c1)C=NN=C(c1ccncc1)[O][Ti]1([O]C(c3ccncc3)=NN=Cc3cc(Br)ccc3[O]1)[O]2", "note": "(centres unmarked) [Ti-6-IBr]", "values": [{"measurement": "IC50", "setting": "HeLa cells [1]", "value": "78.64 ± 0.2", "unit": "µM"}]}
{"smiles": "[O-]C(=NN=Cc1ccccc1[O-])c1ccncc1.[O-]C(=NN=Cc1ccccc1[O-])c1ccncc1.[Ti+4]", "note": "[Ti-1-IS]", "values": [{"measurement": "IC50", "setting": "HeLa cells [1]", "value": "61.76 ± 0.1", "unit": "µM"}]}
{"smiles": "COc1cccc(C=NN=C([O-])c2ccncc2)c1[O-].COc1cccc(C=NN=C([O-])c2ccncc2)c1[O-].[Ti+4]", "note": "[Ti-3-IO]", "values": [{"measurement": "IC50", "setting": "HeLa cells [1]", "value": "27.2 ± 1.1", "unit": "µM"}, {"measurement": "Selectivity", "setting": "HeLa cells [1]", "value": "> 29"}, {"measurement": "ROS production compared to the control", "setting": "HeLa cells [2]", "value": "increased fluorescence"}, {"measurement": "Apoptosis induction by AO–EB staining", "setting": "HeLa cells [3]", "value": "apoptosis was triggered"}, {"measurement": "G0/G1 phase", "setting": "HeLa cells [4]", "value": 18.32, "unit": "%"}, {"measurement": "S Phase", "setting": "HeLa cells [4]", "value": 19.41, "unit": "%"}, {"measurement": "Sub-G0 phase", "setting": "HeLa cells [4]", "value": 28.48, "unit": "%"}]}
{"smiles": "[O-]C(=NN=Cc1cc(Cl)ccc1[O-])c1ccncc1.[O-]C(=NN=Cc1cc(Cl)ccc1[O-])c1ccncc1.[Ti+4]", "note": "[Ti-5-ICl]", "values": [{"measurement": "IC50", "setting": "HeLa cells [1]", "value": "24.2 ± 0.7", "unit": "µM"}, {"measurement": "Selectivity", "setting": "HeLa cells [1]", "value": "> 26"}, {"measurement": "ROS production compared to the control", "setting": "HeLa cells [2]", "value": "increased fluorescence"}, {"measurement": "IC50", "setting": "HEK-293 cells", "value": "> 250", "unit": "µM"}, {"measurement": "Apoptosis induction by AO–EB staining", "setting": "HeLa cells [3]", "value": "apoptosis was triggered"}, {"measurement": "G0/G1 phase", "setting": "HeLa cells [4]", "value": 7.45, "unit": "%"}, {"measurement": "S Phase", "setting": "HeLa cells [4]", "value": 16.10, "unit": "%"}, {"measurement": "Sub-G0 phase", "setting": "HeLa cells [4]", "value": 14.72, "unit": "%"}]}
